Assay [1] deals with Blood cancer cells RS4; 11. In words: CellTiter Glo test: growth inhibition of cells. It is filed as cell-based. The note with it: Homo sapiens, 11 cells, 72 h, cell viability. On the procedure:
Test of Candidate Compounds on Growth Inhibition of Cells Determined by CellTiter Glo
Blood cancer cells RS4; 11 were inoculated into the 96-well cell culture plate through Multidrop 3000 cells per well, with a volume of 100 μL. The final compound concentration ranged from 50 μM to 0.01 μM at 9 concentration gradients and the DMSO final concentration was 0.1%. The cells and compounds were co-incubated in a cell incubator at 37° C. for 72 h, a CellTiter-Glo Luminescent Cell Viability Assay reagent was added 100 μL/well, the cells and compound were uniformly mixed and incubated at room temperature for 10 min, and Envision reading was performed. A sample treated with 50 μM of a positive compound was taken as a positive control and a sample treated with 100 nL of DMSO was taken as a negative control.
In general terms: ATP-based viability assays read luminescence as a measure of living cells.

Assay [2] addresses T1, MDMX (Homo sapiens, UniProt O15151).
T1 sequence (O15151 2-134): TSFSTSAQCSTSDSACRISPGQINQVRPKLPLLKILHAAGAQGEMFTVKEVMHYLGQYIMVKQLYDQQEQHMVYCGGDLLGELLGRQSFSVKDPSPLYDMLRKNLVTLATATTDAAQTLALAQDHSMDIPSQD
Put plainly: HTRF test: inhibition of MDMX-p53 protein binding. A general note: Time-resolved FRET reads energy transfer from a long-lived donor to a nearby acceptor.

In assay [3] the target is MDM2 (Homo sapiens, UniProt Q00987). In words: HTRF test: inhibition of MDM2-p53 protein binding.
Chain of MDM2 (Q00987 2-138): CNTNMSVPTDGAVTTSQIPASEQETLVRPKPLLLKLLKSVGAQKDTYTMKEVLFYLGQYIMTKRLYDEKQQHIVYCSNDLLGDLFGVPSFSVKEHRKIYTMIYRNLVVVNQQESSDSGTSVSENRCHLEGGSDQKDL

This passage reports IC50 results from patent US20250223307A1, “MDM2/MDMX DOUBLE-TARGET INHIBITOR COMPOUND, PRODRUG, PHARMACEUTICAL COMPOSITION, AND PREPARATION METHOD THEREFOR AND USE THEREOF” (GLOBAL HEALTH DRUG DISCOVERY INSTITUTE, priority 2022, published 2025).

Usually IC50 stands for the point on the concentration scale where inhibition reaches its midpoint. Read a low IC50 as higher potency. `Cc1c(Cl)ccc2c(/C=C3\NC(=O)N(C(CO)c4ccc(C#N)cc4)C3=O)c[nH]c12` (stereo not drawn) [Compound 88, (Z)-4-(1-(4-((6-chloro-7-methyl-1H-indol-3-yl)methylene)-2,5-dioxoimidazolidin-1-yl)-2-hydroxyethyl)benzonitrile]: the results for the 50% inhibitory concentration (IC50) in assay [1], in assay [2] and in assay [3] were at most 1000 nM, below 10 nM and below 10 nM, respectively.
For the molecule `N#Cc1ccc(CN2C(=O)N/C(=C\c3c[nH]c4c(F)c(Cl)ccc34)C2=O)cc1` [Compound 16, (Z)-4-((4-((6-chloro-7-fluoro-1H-indol-3-yl)methylene)-2,5-dioxoimidazolidin-1-yl)methyl)benzonitrile], the IC50 in assay [1] is at most 1000 nM; in assay [2], below 10 nM; in assay [3] it was below 10 nM.
With `O=C1N/C(=C\c2c[nH]c3c(F)c(Cl)ccc23)C(=O)N1Cc1ccc(Cl)c(F)c1F` [Compound 104, (Z)-3-(4-chloro-2,3-difluorobenzyl)-5-((6-chloro-7-fluoro-1H-indol-3-yl)methylene)imidazolidine-2,4-dione], the IC50 is at most 1000 nM in assay [1], 10 to 100 nM in assay [2] and 10 to 100 nM in assay [3].
With `Cc1c(Cl)ccc2c(/C=C3\NC(=O)N(C(C(=O)NCCO)c4ccc(C#N)cc4)C3=O)c[nH]c12` (stereo not drawn) [Compound 60, (Z)-2-(4-((6-chloro-7-methyl-1H-indol-3-yl)methylene)-2,5-dioxoimidazolidin-1-yl)-2-(4-cyanophenyl)-N-(2-hydroxyethyl)acetamide], the IC50 in assay [1] is at most 1000 nM; in assay [2], below 10 nM; in assay [3] it was below 10 nM.
Regarding `O=C1N/C(=C\c2c[nH]c3cc(Br)ccc23)C(=O)N1Cc1ccc(Cl)cc1` [Compound 5, (Z)-5-((6-bromo-1H-indol-3-yl)methylene)-3-(4-chlorobenzyl)imidazolidine-2,4-dione], the half-maximal inhibitory concentration (IC50) in assay [1] was in the range of 1000 to 10000 nM; in assay [2] it was 10 to 100 nM; in assay [3], 10 to 100 nM.
For the molecule `O=C(NC(CO)CO)C(c1ccc(F)c(F)c1)N1C(=O)N/C(=C\c2c[nH]c3cc(Cl)ccc23)C1=O` (stereo not drawn) [Compound 24, (Z)-2-(4-((6-chloro-1H-indol-3-yl)methylene)-2,5-dioxoimidazolidin-1-yl)-2-(3,4-difluorophenyl)-N-(1,3-dihydroxypropan-2-yl)acetamide], the IC50 in assay [1] was in the range of 1000 to 10000 nM; in assay [2] it was 10 to 100 nM; in assay [3], 10 to 100 nM.
Take `O=C1N/C(=C\c2c[nH]c3cc(Cl)ccc23)C(=O)N1[C@@H](CO)c1ccc(F)c(F)c1` [Compound 54, (R,Z)-5-((6-chloro-1H-indol-3-yl)methylene)-3-(1-(3,4-difluorophenyl)-2-hydroxyethyl)imidazolidine-2,4-dione]: the IC50 was at most 1000 nM in assay [1], 10 to 100 nM in assay [2] and 10 to 100 nM in assay [3].
With `Cc1c(Cl)ccc2c(/C=C3\NC(=O)N(C(C(=O)NC45CCC(O)(CC4)CC5)c4ccc(F)c(F)c4)C3=O)c[nH]c12` (stereo not drawn) [Compound 66, (Z)-2-(4-((6-chloro-7-methyl-1H-indol-3-yl)methylene)-2,5-dioxoimidazolidin-1-yl)-2-(3,4-difluorophenyl)-N-(4-hydroxylbicyclo[2.2.2]octan-1-yl)acetamide], the figures for the IC50 in assay [1], in assay [2] and in assay [3] were at most 1000 nM, below 10 nM and below 10 nM, respectively.
With `O=C1N/C(=C\c2c[nH]c3c(F)c(Cl)ccc23)C(=O)N1C(CO)c1c(F)cc(Cl)cc1F` (stereo not drawn) [Compound 103, (Z)-3-(1-(4-chloro-2,6-difluorophenyl)-2-hydroxyethyl)-5-((6-chloro-7-fluoro-1H-indol-3-yl)methylene)imidazolidine-2,4-dione], the IC50 in assay [1] was 1000 to 10000 nM; in assay [2] it was above 100 nM; in assay [3] it was below 10 nM.
Turning to `Cc1c(Cl)ccc2c(/C=C3\NC(=O)N(C(C(=O)NC(CO)CO)c4ccc(C#N)cc4)C3=O)c[nH]c12` (stereo not drawn) [Compound 32, (Z)-2-(4-((6-chloro-7-methyl-1H-indol-3-yl)methylene)-2,5-dioxoimidazolidin-1-yl)-2-(4-cyanophenyl)-N-(1,3-dihydroxypropan-2-yl)acetamide], the IC50 was 1000 to 10000 nM in assay [1], below 10 nM in assay [2] and below 10 nM in assay [3].
With `O=C1N/C(=C\c2c[nH]c3c(F)c(Cl)ccc23)C(=O)N1C(CO)c1ccc(Cl)c(F)c1` (stereo not drawn) [Compound 77, (Z)-3-(1-(4-chloro-3-fluorophenyl)-2-hydroxyethyl)-5-((6-chloro-7-fluoro-1H-indol-3-yl)methylene)imidazolidine-2,4-dione], the IC50 in assay [1] was at most 1000 nM; in assay [2], 10 to 100 nM; in assay [3] it was 10 to 100 nM.
On to `N#Cc1ccc(CN2C(=O)N/C(=C\c3c[nH]c4c(F)c(Cl)ccc34)C2=O)c(F)c1F` [Compound 34, 4-{[(4Z)-4-[(6-chloro-7-fluoro-1H-indol-3-yl)methylene]-2,5-dioxoimidazolidin-1-yl]methyl}-2,3-difluorobenzonitrile], for which the IC50 in assay [1] is at most 1000 nM; in assay [2], 10 to 100 nM; in assay [3], below 10 nM.
Regarding `O=C1N/C(=C\c2c[nH]c3c(F)c(Cl)ccc23)C(=O)N1C(CO)c1ccc(F)c(F)c1` (stereo not drawn) [Compound 86, (Z)-5-((6-chloro-7-fluoro-1H-indol-3-yl)methylene)-3-(1-(3,4-difluorophenyl)-2-hydroxyethyl)imidazolidine-2,4-dione], the results for the IC50 in assay [1], in assay [2] and in assay [3] were at most 1000 nM, 10 to 100 nM and 10 to 100 nM, respectively.
Turning to `O=C1N/C(=C\c2c[nH]c3cc(Cl)ccc23)C(=O)N1Cc1ccc(Cl)cc1` [Compound 2, (Z)-5-((6-chloro-1H-indol-3-yl)methylene)-3-(4-chlorobenzyl)imidazolidine-2,4-dione], the IC50 is at most 1000 nM in assay [1], 10 to 100 nM in assay [2] and 10 to 100 nM in assay [3].
With `O=C(NCCO)C(c1ccc(Cl)cc1)N1C(=O)N/C(=C\c2c[nH]c3cc(Cl)ccc23)C1=O` (stereo not drawn) [Compound 62, (Z)-2-(4-((6-chloro-1H-indol-3-yl)methylene)-2,5-dioxoimidazolidin-1-yl)-2-(4-chlorophenyl)-N-(2-hydroxyethyl)acetamide], the IC50 in assay [1] is at most 1000 nM; in assay [2], 10 to 100 nM; in assay [3] it was below 10 nM.
As to `N#Cc1ccc(C(C=O)N2C(=O)N/C(=C\c3c[nH]c4c(F)c(Cl)ccc34)C2=O)cc1F` (stereo not drawn) [Compound 33, (Z)-4-(1-(4-((6-chloro-7-fluoro-1H-indol-3-yl)methylene)-2,5-dioxoimidazolidin-1-yl)-2-oxyethyl)-2-fluorobenzonitrile], the IC50 in assay [1] lay in the range of 1000 to 10000 nM; in assay [2] it was 10 to 100 nM; in assay [3] it was 10 to 100 nM.
For the molecule `O=C1N/C(=C\c2c[nH]c3cc(Cl)ccc23)C(=O)N1C(CO)c1ccc(Cl)cc1` (stereo not drawn) [Compound 45, (Z)-5-((6-chloro-1H-indol-3-yl)methylene)-3-(1-(4-chlorophenyl)-2-hydroxyethyl)imidazolidine-2,4-dione], the figures for the IC50 in assay [1], in assay [2] and in assay [3] were at most 1000 nM, 10 to 100 nM and 10 to 100 nM, respectively.
With `N#Cc1ccc(C(C(=O)NC(CO)CO)N2C(=O)N/C(=C\c3c[nH]c4c(F)c(Cl)ccc34)C2=O)cc1F` (stereo not drawn) [Compound 27, (Z)-2-(4-((6-chloro-7-fluoro-1H-indol-3-yl)methylene)-2,5-dioxoimidazolidin-1-yl)-2-(4-cyano-3-fluorophenyl)-N-(1,3-dihydroxypropan-2-yl)acetamide], the IC50 in assay [1] is at most 1000 nM; in assay [2] it was below 10 nM; in assay [3], below 10 nM.
`O=C(NCCO)C(c1ccc(Cl)cc1)N1C(=O)N/C(=C\c2c[nH]c3c(F)c(Cl)ccc23)C1=O` (stereo not drawn) [Compound 59, (Z)-2-(4-((6-chloro-7-fluoro-1H-indol-3-yl)methylene)-2,5-dioxoimidazolidin-1-yl)-2-(4-chlorophenyl)-N-(2-hydroxyethyl)acetamide]: the figures for the IC50 in assay [1], in assay [2] and in assay [3] were at most 1000 nM, 10 to 100 nM and below 10 nM, respectively.
With `N#Cc1cc(F)c(CN2C(=O)N/C(=C\c3c[nH]c4c(F)c(Cl)ccc34)C2=O)cc1F` [Compound 36, 4-{[(4Z)-4-[(6-chloro-7-fluoro-1H-indol-3-yl)methylene]-2,5-dioxoimidazolidin-1-yl]methyl}-2,5-difluorobenzonitrile], the figures for the IC50 in assay [1], in assay [2] and in assay [3] were at most 1000 nM, 10 to 100 nM and below 10 nM, respectively.
As to `O=C1N/C(=C\c2c[nH]c3c(F)c(Cl)ccc23)C(=O)N1C(CO)c1ccc(Cl)cc1` (stereo not drawn) [Compound 69, (Z)-5-((6-chloro-7-fluoro-1H-indol-3-yl)methylene)-3-(1-(4-chlorophenyl)-2-hydroxyethyl)imidazolidine-2,4-dione], the IC50 in assay [1] was at most 1000 nM; in assay [2], 10 to 100 nM; in assay [3], 10 to 100 nM.
In the case of `N#Cc1ccc(CN2C(=O)N/C(=C\c3c[nH]c4cc(Cl)ccc34)C2=O)cc1` [Compound 4, (Z)-4-((4-((6-chloro-1H-indol-3-yl)methylene)-2,5-dioxoimidazolidin-1-yl)methyl)benzonitrile], the IC50 was at most 1000 nM in assay [1], 10 to 100 nM in assay [2] and 10 to 100 nM in assay [3].
Take `O=C1N/C(=C\c2c[nH]c3cc(Cl)ccc23)C(=O)N1C(CO)c1ccc(Cl)c(F)c1` (stereo not drawn) [Compound 79, (Z)-5-((6-chloro-1H-indol-3-yl)methylene)-3-(1-(4-chloro-3-fluorophenyl)-2-hydroxyethyl)imidazolidine-2,4-dione]: the IC50 in assay [1] is at most 1000 nM; in assay [2], 10 to 100 nM; in assay [3] it was 10 to 100 nM.
